Legend:
[1] = molecular target: T1, M-phase inducer phosphatase 2 (Homo sapiens) (UniProt P30305); assay: Inhibitory activity against Cell division cycle 25B at 100 uM
T1 sequence (whole entry): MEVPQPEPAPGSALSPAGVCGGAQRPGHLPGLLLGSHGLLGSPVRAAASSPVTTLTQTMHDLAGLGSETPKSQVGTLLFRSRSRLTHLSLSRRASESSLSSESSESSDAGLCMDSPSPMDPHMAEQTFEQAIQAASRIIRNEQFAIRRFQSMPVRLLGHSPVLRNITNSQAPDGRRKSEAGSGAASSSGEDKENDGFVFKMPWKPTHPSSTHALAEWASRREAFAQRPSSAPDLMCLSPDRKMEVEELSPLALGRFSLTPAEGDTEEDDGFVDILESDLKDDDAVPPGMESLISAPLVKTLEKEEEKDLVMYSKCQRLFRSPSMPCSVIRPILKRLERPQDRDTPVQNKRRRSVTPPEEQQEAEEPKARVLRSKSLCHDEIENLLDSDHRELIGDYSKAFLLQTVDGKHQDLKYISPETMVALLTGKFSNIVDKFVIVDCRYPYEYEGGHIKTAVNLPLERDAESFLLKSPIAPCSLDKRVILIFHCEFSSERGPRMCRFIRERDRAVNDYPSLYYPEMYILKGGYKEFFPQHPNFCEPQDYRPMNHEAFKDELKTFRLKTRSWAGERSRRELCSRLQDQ

[2] = molecular target: T2, M-phase inducer phosphatase 2 (Homo sapiens, UniProt P30305); assay: Compound was measured for its inhibitory activity against Cell division cycle 25B
T2 sequence (P30305 whole entry): T1 sequence (whole entry)

Structure (SMILES) | inhibition [1] [%] | IC50 [2] [µM]
COc1cccc(COc2c(I)cc3c(c2I)CN(C(=O)/C=C/c2ccccc2C(F)(F)F)[C@H](C(=O)O)C3)c1 | 28 | –
COc1cccc(COc2c(I)cc3c(c2I)CN(C(=O)/C=C/c2ccccc2F)[C@H](C(=O)O)C3)c1 | 34 | –
COc1cccc(COc2c(I)cc3c(c2I)CN(C(=O)/C=C/c2cc(OC)c(OC)c(OC)c2)[C@H](C(=O)O)C3)c1 | 25 | –
N#C/C(=C\c1ccccc1)C(=O)N1Cc2c(cc(I)c(OCC(=O)OCc3ccccc3)c2I)C[C@H]1C(=O)O | 36 | –
O=C(O)[C@@H]1Cc2cc(I)c(OCc3ccc(Cl)cc3Cl)c(I)c2CN1C(=O)/C=C/c1ccccc1F | 32 | –
C/C(=C\c1ccccc1)C(=O)N1Cc2c(cc(I)c(OCCCCl)c2I)C[C@H]1C(=O)O | 12 | –
O=C(COc1c(I)cc2c(c1I)CN(C(=O)/C=C/c1cccc(Br)c1)[C@H](C(=O)O)C2)OCc1ccccc1 | – | 90
C/C(=C\c1ccccc1)C(=O)N1Cc2c(cc(I)c(OCc3ccc(Cl)cc3Cl)c2I)C[C@H]1C(=O)O | – | 40
COc1cc(/C=C/C(=O)N2Cc3c(cc(I)c(OCc4ccc(C(F)(F)F)cc4)c3I)C[C@H]2C(=O)O)cc(OC)c1OC | – | 57
O=C(O)[C@@H]1Cc2cc(I)c(OCc3ccc(C(F)(F)F)cc3)c(I)c2CN1C(=O)/C=C/c1cccc(F)c1 | – | 30
N#C/C(=C\c1ccccc1)C(=O)N1Cc2c(cc(I)c(O)c2I)C[C@H]1C(=O)O | 12 | –
O=C(O)[C@@H]1Cc2cc(I)c(OCCCCl)c(I)c2CN1C(=O)/C(F)=C/c1ccccc1 | – | 100
Cc1ccc(/C=C/C(=O)N2Cc3c(cc(I)c(OCc4ccc(Cl)cc4Cl)c3I)C[C@H]2C(=O)O)cc1 | – | 27
O=C(O)[C@@H]1Cc2cc(I)c(OCCCCl)c(I)c2CN1C(=O)/C=C/c1ccc(Br)cc1 | – | 70
O=C(O)[C@@H]1Cc2cc(I)c(OCc3cccc(C(F)(F)F)c3)c(I)c2CN1C(=O)/C=C/c1ccc2c(c1)OCO2 | – | 66
O=C(O)[C@@H]1Cc2cc(I)c(OCc3ccc(Cl)cc3Cl)c(I)c2CN1C(=O)/C=C/c1ccc(Br)cc1 | – | 23

Structure (SMILES) | inhibition [1] [%] | IC50 [2] [µM]
COc1cccc(COc2c(I)cc3c(c2I)CN(C(=O)/C=C/c2cccc(F)c2)[C@H](C(=O)O)C3)c1 | 41 | –
O=C(O)[C@@H]1Cc2cc(I)c(OCc3ccc(Cl)cc3Cl)c(I)c2CN1C(=O)/C=C/c1ccccc1Br | – | 33
O=C(O)[C@@H]1Cc2cc(I)c(OCc3cccc(C(F)(F)F)c3)c(I)c2CN1C(=O)/C=C/c1cccc(C(F)(F)F)c1 | – | 50
O=C(O)[C@@H]1Cc2cc(I)c(OCc3ccccc3F)c(I)c2CN1C(=O)/C=C/c1cccc(F)c1 | – | 75
O=C(O)[C@@H]1Cc2cc(I)c(OCc3ccc(Cl)cc3Cl)c(I)c2CN1C(=O)/C(F)=C/c1ccccc1 | – | 36
N#C/C(=C\c1ccccc1)C(=O)N1Cc2c(cc(I)c(OCCCCl)c2I)C[C@H]1C(=O)O | 11 | –
O=C(O)[C@@H]1Cc2cc(I)c(OCc3ccccc3F)c(I)c2CN1C(=O)/C=C/c1ccc(Cl)c(Cl)c1 | – | 75
O=C(COc1c(I)cc2c(c1I)CN(C(=O)/C=C/c1ccc(Cl)cc1Cl)[C@H](C(=O)O)C2)OCc1ccccc1 | – | 28
O=C(O)[C@@H]1Cc2cc(I)c(OCCCCl)c(I)c2CN1C(=O)/C=C/c1cccc(Br)c1 | – | 70
O=C(O)C1Cc2cc(I)c(OCc3c(Cl)cccc3Cl)c(I)c2CN1C(=O)C1CCCC1 (stereo unspecified) | – | 100
O=C(O)[C@@H]1Cc2cc(I)c(OCc3ccc(C(F)(F)F)cc3)c(I)c2CN1C(=O)/C=C/c1ccc([N+](=O)[O-])cc1 | – | 55
O=C(O)[C@@H]1Cc2cc(I)c(OCc3ccc(Cl)cc3Cl)c(I)c2CN1C(=O)/C=C/c1ccc([N+](=O)[O-])cc1 | – | 45
Cc1ccc(/C=C/C(=O)N2Cc3c(cc(I)c(OCc4cccc(C(F)(F)F)c4)c3I)C[C@H]2C(=O)O)cc1 | – | 30
O=C(O)[C@@H]1Cc2cc(I)c(OCc3ccccc3F)c(I)c2CN1C(=O)CCc1ccccc1 | – | 80
O=C(O)[C@@H]1Cc2cc(I)c(OCc3c(Cl)cccc3Cl)c(I)c2CN1C(=O)CCc1ccccc1 | – | > 100

Other lines, results leading:

inhibition [1] [%] | IC50 [2] [µM] | Structure (SMILES)
22 | – | O=C(O)[C@@H]1Cc2cc(I)c(OCc3cccc(C(F)(F)F)c3)c(I)c2CN1C(=O)/C=C/c1ccc(Cl)cc1
– | 45 | O=C(O)[C@@H]1Cc2cc(I)c(OCc3ccccc3F)c(I)c2CN1C(=O)/C=C/c1cccc(C(F)(F)F)c1
– | > 100 | O=C(O)[C@@H]1Cc2cc(I)c(OCc3ccc(Cl)cc3Cl)c(I)c2CN1C(=O)c1cccnc1Cl
– | 35 | O=C(O)[C@@H]1Cc2cc(I)c(OCc3cccc(C(F)(F)F)c3)c(I)c2CN1C(=O)/C=C/c1ccccc1F
– | 40 | O=C(O)[C@@H]1Cc2cc(I)c(OCc3ccc(Cl)cc3Cl)c(I)c2CN1C(=O)/C=C/c1cccc(Br)c1
– | 20 | O=C(O)[C@@H]1Cc2cc(I)c(OCc3c(Cl)cccc3Cl)c(I)c2CN1C(=O)/C=C/c1cccc(Cl)c1
– | 36 | O=C(O)[C@@H]1Cc2cc(I)c(OCc3cccc(C(F)(F)F)c3)c(I)c2CN1C(=O)/C=C/c1ccccc1C(F)(F)F
24 | – | C/C(=C\c1ccccc1)C(=O)N1Cc2c(cc(I)c(OCC(=O)OCc3ccccc3)c2I)C[C@H]1C(=O)O
– | 90 | O=C(O)[C@@H]1Cc2cc(I)c(OCc3ccccc3F)c(I)c2CN1C(=O)c1cccnc1Cl
– | 62 | COc1cccc(COc2c(I)cc3c(c2I)CN(C(=O)/C=C/c2ccc(C)cc2)[C@H](C(=O)O)C3)c1
– | 90 | O=C(COc1c(I)cc2c(c1I)CN(C(=O)/C=C/c1ccc(Br)cc1)[C@H](C(=O)O)C2)OCc1ccccc1
– | 40 | O=C(O)[C@@H]1Cc2cc(I)c(OCc3cccc(C(F)(F)F)c3)c(I)c2CN1C(=O)/C=C/c1cccc(Cl)c1
– | 45 | O=C(O)[C@@H]1Cc2cc(I)c(OCc3c(Cl)cccc3Cl)c(I)c2CN1C(=O)/C=C/c1cccc(F)c1
– | 75 | COc1cccc(COc2c(I)cc3c(c2I)CN(C(=O)/C=C/c2ccc(Cl)cc2)[C@H](C(=O)O)C3)c1
– | 45 | O=C(O)[C@@H]1Cc2cc(I)c(OCc3cccc(C(F)(F)F)c3)c(I)c2CN1C(=O)/C=C/c1cccc(F)c1

Source: ChEMBL document CHEMBL1133317, “The solid phase synthesis of tetrahydroisoquinolines having cdc25B inhibitory activity” (Bioorg Med Chem Lett, 2000)
